We go through 11 compounds from ChEMBL document CHEMBL1201862, “PubChem BioAssay data set” (2004).

Among the test systems are RXF 393; COLO 205; HT-29; KM12; HL-60; MCF7; MOLT-4; MDA-MB-435; OVCAR-3; IGROV-1; SW-620; CCRF-CEM; LOX IMVI; SK-MEL-28; MDA-N; SF-268; NCI-H23; SK-MEL-2; K562; T47D.
Test in all cases: NCI anticancer screen, dose series, 48 h

Structures are written as SMILES.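 The compound was tested at five concentrations on cells cultured in 96-well plates, with a 48-hour exposure period. Abbreviation: GI50, concentration required for 50% inhibition of growth.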 Active and inactive are the calls of the source. No stated cut-off is given here; in the data, active = GI50 up to about 1.1 µM and inactive = higher. Where only a bound is given, the exact number is not on record here.

As to `Cc1c(N)nc([C@H](CC(N)=O)NC[C@H](N)C(N)=O)nc1C(=O)N[C@H](C(=O)N[C@H](C)[C@@H](O)[C@H](C)C(=O)N[C@H](C(=O)NCCc1nc(-c2nc(C(=O)NCCC[S+](C)C)cs2)cs1)[C@@H](C)O)C(OC1OC(CO)C(O)C(O)C1OC1OC(CO)C(O)C(OC(N)=O)C1O)c1c[nH]cn1` (some centres not stated), the GI50 with RXF 393 is 0.236 µM (active); in the assay on COLO 205, 6.05 µM (inactive); in the assay with HT-29 it was 14.1 µM (inactive); in the assay on KM12, 15.6 µM (inactive); in the assay with HL-60, 5.73 µM (inactive); in the assay on MCF7, 2.45 µM (inactive). For the same compound, the GI50 in the assay on MOLT-4 is 1.28 µM (inactive); in the assay on MDA-MB-435, 19.6 µM (inactive); in the assay on OVCAR-3, 4.67 µM (inactive); with IGROV-1 it was 2.29 µM (inactive); with SW-620 it was 8.18 µM (inactive); with CCRF-CEM it was 6.75 µM (inactive). Further, the GI50 in the assay on LOX IMVI is 0.161 µM (active); in the assay on SK-MEL-28, 18.2 µM (inactive); in the assay on MDA-N, 14.8 µM (inactive); in the assay on SF-268, 1.15 µM (inactive); in the assay with NCI-H23 it was 0.637 µM (active); in the assay with SK-MEL-2, 13.7 µM (inactive). Besides, the GI50 in the assay with K562 is 8.45 µM (inactive).

For the compound `COc1cc2c[n+](C)c3c4cc5c(cc4ccc3c2cc1OC)OCO5` [NITIDINE CHLORIDE], the GI50 was 12.4 µM (inactive) in the assay with RXF 393; 1.66 µM (inactive) in the assay on COLO 205; 1.56 µM (inactive) with HT-29; 2.07 µM (inactive) in the assay on KM12; 4.25 µM (inactive) in the assay on HL-60; 1.14 µM (inactive) with MCF7. Also, the GI50 in the assay on MOLT-4 is 0.411 µM (active); with MDA-MB-435, > 100 µM (inactive); in the assay with OVCAR-3 it was 2.24 µM (inactive); with IGROV-1, 1.03 µM (active); in the assay on SW-620, 1.14 µM (inactive); in the assay with CCRF-CEM it was 0.752 µM (active). In addition, the GI50 was 3.97 µM (inactive) in the assay on LOX IMVI; 9.38 µM (inactive) in the assay with SK-MEL-28; 64 µM (inactive) with MDA-N; 0.126 µM (active) with SF-268; 1.07 µM (active) in the assay with NCI-H23; 2.68 µM (inactive) in the assay with SK-MEL-2. The GI50 with K562 is 4.51 µM (inactive).

As for `O=C(O)c1ccc2[nH]c(=O)oc2c1`, the GI50 with RXF 393, with COLO 205, with HT-29, with KM12, with HL-60 and in the assay on MCF7 was > 100 µM (inactive) in each case. The GI50 in the assay with MOLT-4, in the assay with MDA-MB-435, with OVCAR-3, in the assay with IGROV-1, in the assay with SW-620 and in the assay on CCRF-CEM was > 100 µM (inactive) each time. In addition, the GI50 with LOX IMVI, with SK-MEL-28, with MDA-N, in the assay on SF-268, in the assay on NCI-H23 and in the assay with SK-MEL-2 was > 100 µM (inactive) each time. The GI50 in the assay with K562 is > 100 µM (inactive).

Take `Cc1cccc(N2C(=O)C(Cl)=C(Cl)C2=O)c1`: the GI50 in the assay on RXF 393 was 16.5 µM (inactive); in the assay on COLO 205 it was > 69 µM (inactive); with HT-29, > 62.2 µM (inactive); in the assay with KM12, > 100 µM (inactive); with HL-60, > 100 µM (inactive); with MOLT-4, 33.9 µM (inactive). Also, the GI50 was > 50.6 µM (inactive) with OVCAR-3; > 100 µM (inactive) in the assay on IGROV-1; > 44 µM (inactive) in the assay with SW-620; 18.5 µM (inactive) in the assay on CCRF-CEM; > 100 µM (inactive) in the assay with LOX IMVI; > 54.5 µM (inactive) in the assay with SK-MEL-28. Also, the GI50 was 97.3 µM (inactive) with SF-268, > 69.2 µM (inactive) in the assay on NCI-H23, > 100 µM (inactive) with SK-MEL-2 and 35.3 µM (inactive) with K562.

Turning to `C=C(C)C1CC=C(C)CC1` (configuration not stated), the GI50 was 982 µM (inactive) in the assay on RXF 393; 1010 µM (inactive) with COLO 205; 923 µM (inactive) with HT-29; 1020 µM (inactive) in the assay with KM12; 817 µM (inactive) with HL-60; 1140 µM (inactive) in the assay with MOLT-4. Besides, the GI50 was 891 µM (inactive) in the assay on OVCAR-3; 993 µM (inactive) with IGROV-1; 895 µM (inactive) in the assay on SW-620; 826 µM (inactive) with CCRF-CEM; 897 µM (inactive) in the assay with LOX IMVI; 951 µM (inactive) in the assay with SK-MEL-28. The GI50 with SF-268 was 944 µM (inactive); in the assay with NCI-H23, 933 µM (inactive); in the assay with SK-MEL-2 it was 798 µM (inactive); in the assay on K562, 813 µM (inactive).

`O=C1CC(C2(O)C(=O)Nc3ccc([N+](=O)[O-])cc32)c2ccccc21` (configuration not stated): the GI50 was 24.8 µM (inactive) in the assay with RXF 393; 25.4 µM (inactive) in the assay on COLO 205; 22.5 µM (inactive) in the assay on HT-29; 35.4 µM (inactive) with KM12; 14.8 µM (inactive) in the assay on HL-60; 20.7 µM (inactive) with MOLT-4. Further, the GI50 with OVCAR-3 was 25.4 µM (inactive); in the assay on IGROV-1 it was 17.8 µM (inactive); in the assay with SW-620, 28.2 µM (inactive); in the assay on CCRF-CEM it was 19.5 µM (inactive); in the assay on LOX IMVI, 16.8 µM (inactive); with SK-MEL-28 it was 24.8 µM (inactive). Also, the GI50 is 18.5 µM (inactive) in the assay on SF-268, 26.7 µM (inactive) with NCI-H23, 16.6 µM (inactive) in the assay with SK-MEL-2 and 19.7 µM (inactive) in the assay with K562.

For `CCCCC1(OC(=O)CCC(=O)O)CCC2(CCC(C)C(C/C=C(C)/C=C/C(O)C(C)/C=C/C(=O)O)O2)OC1CC/C(C)=C/C(=O)O` (configuration not stated), the GI50 in the assay with RXF 393 was 1.75 µM (inactive); with COLO 205, 16.6 µM (inactive); in the assay on HT-29 it was 10.3 µM (inactive); in the assay with KM12 it was 3.1 µM (inactive); in the assay on HL-60, 4.57 µM (inactive); in the assay on MOLT-4 it was 5.02 µM (inactive). Moreover, the GI50 with OVCAR-3 is 2.64 µM (inactive); in the assay with IGROV-1 it was 1.47 µM (inactive); with SW-620, 8.3 µM (inactive); with CCRF-CEM, 3.94 µM (inactive); in the assay with LOX IMVI, 1.66 µM (inactive); with SK-MEL-28, 2.02 µM (inactive). In addition, the GI50 was 2.51 µM (inactive) with SF-268, 0.535 µM (active) in the assay on NCI-H23, 1.71 µM (inactive) with SK-MEL-2 and 2.8 µM (inactive) with K562.

For `CCCC(C(=O)OC)C1N/C(=N/C#N)N(Cc2ccccc2)C1=O` (configuration not stated), the GI50 in the assay with RXF 393, in the assay with COLO 205, with HT-29, with KM12, in the assay on HL-60 and in the assay on MOLT-4 was > 100 µM (inactive) in each case. The GI50 in the assay on OVCAR-3, in the assay with IGROV-1, in the assay on SW-620, with CCRF-CEM, in the assay on LOX IMVI and in the assay on SK-MEL-28 was > 100 µM (inactive) throughout. Moreover, the GI50 in the assay on SF-268 is > 100 µM (inactive); with NCI-H23, > 100 µM (inactive); in the assay on SK-MEL-2, > 100 µM (inactive); with K562 it was 66.4 µM (inactive).

Consider `Cc1c2ccncc2c(C)c2c1[nH]c1ccc(OCC(F)(F)F)cc12`, for which the GI50 with RXF 393 was 1.9 µM (inactive); in the assay on COLO 205, 1.55 µM (inactive); in the assay with HT-29, 1.53 µM (inactive); with KM12, 1.36 µM (inactive); in the assay with HL-60, 2.08 µM (inactive); in the assay on MOLT-4 it was 0.824 µM (active). Moreover, the GI50 with OVCAR-3 was 1.85 µM (inactive); with IGROV-1, 1.61 µM (inactive); in the assay with SW-620, 0.619 µM (active); in the assay with CCRF-CEM, 1.21 µM (inactive); with LOX IMVI, 1.61 µM (inactive); in the assay with SK-MEL-28, 1.73 µM (inactive). The GI50 in the assay on SF-268 was 1.55 µM (inactive); in the assay on NCI-H23 it was 1.71 µM (inactive); with SK-MEL-2, 1.58 µM (inactive); with K562 it was 1.08 µM (active).

`COc1cc2cnc3c4cc(O)ccc4ccc3c2cc1OC`: the GI50 is 46.5 µM (inactive) in the assay on RXF 393; 12.9 µM (inactive) with COLO 205; > 100 µM (inactive) in the assay on HT-29; 51.4 µM (inactive) with KM12; 33.2 µM (inactive) with HL-60; 31.1 µM (inactive) in the assay with MOLT-4. The GI50 in the assay on OVCAR-3 is 17.6 µM (inactive); with IGROV-1, 75.7 µM (inactive); with SW-620, 54.7 µM (inactive); in the assay on CCRF-CEM, 29.9 µM (inactive); with LOX IMVI, 42.6 µM (inactive); in the assay with SK-MEL-28, 65.6 µM (inactive). For the same compound, the GI50 in the assay with SF-268 is 23.6 µM (inactive); with NCI-H23, 45.7 µM (inactive); in the assay on SK-MEL-2, 26.4 µM (inactive); with K562 it was 19.7 µM (inactive).

`COc1ccc(C2SCC(=O)N2NC(=O)C(C)Oc2ccccc2Cl)cc1` (configuration not stated): the GI50 with T47D was 27.2 µM (inactive); in the assay with RXF 393, 27.7 µM (inactive); with COLO 205, 26.5 µM (inactive); in the assay on HT-29, 65.8 µM (inactive); in the assay on KM12 it was 35.9 µM (inactive); with HL-60, 17.1 µM (inactive). Further, the GI50 with MCF7 is 32.4 µM (inactive); in the assay on MOLT-4 it was 27 µM (inactive); in the assay with MDA-MB-435, 33 µM (inactive); with IGROV-1, 56.2 µM (inactive); in the assay with SW-620, 49.4 µM (inactive); with CCRF-CEM, 31.8 µM (inactive). Also, the GI50 with LOX IMVI is 24.5 µM (inactive); in the assay on SK-MEL-28 it was > 100 µM (inactive); with SF-268 it was > 100 µM (inactive); in the assay with NCI-H23, 67.8 µM (inactive); in the assay on SK-MEL-2, 18.7 µM (inactive); in the assay with K562, 47.4 µM (inactive).
